The test system of test [1] is Mycobacterium tuberculosis. As to the kind of experiment: Antimycobacterial activity against Mycobacterium tuberculosis H37Rv after 7 days by microbroth dilution-resazurin assay. Format: functional. The note with it: 168 h.
Test [2] has as its target T1, dTDP-4-dehydrorhamnose reductase (Mycobacterium tuberculosis) (UniProt P9WH09).
T1 sequence (whole entry): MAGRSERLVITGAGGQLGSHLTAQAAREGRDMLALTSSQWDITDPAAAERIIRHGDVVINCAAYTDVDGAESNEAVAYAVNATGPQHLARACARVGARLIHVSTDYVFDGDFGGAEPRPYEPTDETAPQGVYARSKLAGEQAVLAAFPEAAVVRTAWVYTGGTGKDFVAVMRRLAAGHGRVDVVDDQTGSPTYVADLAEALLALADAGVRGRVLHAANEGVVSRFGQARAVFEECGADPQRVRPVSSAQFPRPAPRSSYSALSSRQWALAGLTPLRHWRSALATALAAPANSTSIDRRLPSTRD
As to the kind of experiment: Inhibition of Mycobacterium tuberculosis RmlD assessed as inhibition of dTDP-beta-6-deoxy-L-lyxo-4-hexulose to dTDP-beta-L-rhamnose conversion at 10 ug/ml.

The target of test [3] is T2, dTDP-4-dehydrorhamnose reductase (Mycobacterium tuberculosis, UniProt P9WH09).
T2 sequence (P9WH09 whole entry): T1 sequence (whole entry)
As to the kind of experiment: Inhibition of Mycobacterium tuberculosis RmlD assessed as inhibition of dTDP-beta-6-deoxy-L-lyxo-4-hexulose to dTDP-beta-L-rhamnose conversion.

In brackets after ≈: the same amount, converted by molar mass. Activity calls are given as the source filed them. No cut-off for these calls is given here.

The molecule `C=Cc1cc(O)cc2c1-c1ccc(O)c(C)c1CC2` [EFFUSOL] registered an MIC in test [1] of 20 µg/mL (≈ 79.3 µM).

In the case of `C=Cc1c(C)c(O)cc2c1-c1ccc(O)c(C)c1CC2`, the inhibition result in test [2] is “inactive”.

In the case of `Oc1ccc2c(O)c3ccccc3cc2c1O`, the inhibition result in test [2] is “inactive”.

For the molecule `Cc1c2cc(O)c(=O)cc-2oc2cc(O)c(O)cc12`, the 50% inhibitory concentration (IC50) in test [3] is 15000 nM. This molecule also gave an MIC in test [1] of 62 µg/mL (≈ 240 µM).

For the molecule `CSc1ncc2ncn([C@@H]3O[C@H](CO)[C@@H](O)[C@H]3O)c2n1`, the inhibition result in test [2] was “inactive”.

For `CC(=O)Oc1c(C)c(OC(C)=O)c2c(c1C(C)=O)OC1CC(=O)C(C(C)=O)=C(O)C21C` (configuration not stated), the inhibition entry in test [2] was “inactive”.

As for `COc1ccccc1/C=C/C(=O)/C=C/c1ccccc1O`, in test [2], the inhibition entry was “inactive”.

With `CCC(c1ccc(O)cc1)C(CC)c1ccc(O)c(O)c1` (configuration not stated), the inhibition entry in test [2] was “inactive”.

Consider `Cc1ccc(NC(=O)Nc2cccnc2)cc1NC(=O)Nc1cccnc1`, for which, in test [2], the inhibition entry was “inactive”.

Consider `COc1cc(/N=N/c2c(O)nc3ccccc3c2O)c(OC)cc1/N=N/c1ccccc1`, for which, in test [2], the inhibition result is “inactive”.

`O=C(OCC(O)COC(=O)c1cccnc1)c1cccnc1`: the inhibition entry in test [2] is “inactive”.

As for `COc1cc(C(=O)C(=O)c2cc(OC)c(O)c(OC)c2)cc(OC)c1O`, in test [2], the inhibition entry is “inactive”.

For `O=C1C(Cl)=C(Nc2ccc3c[nH]nc3c2)C(=O)c2ccccc21`, the inhibition result in test [2] was “inactive”.

For `COc1cccc2c1[C@H](CO)N1[C@H](C#N)[C@@H]3C[C@H](C(=O)O)[C@@H]([C@@H]1C2)N3C`, in test [2], the inhibition result was “inactive”.

Regarding `Oc1ccc(-c2ccc3ccccc3c2)cc1`, the inhibition result in test [2] was “inactive”.

Turning to `CC(=O)OCc1cc(-c2nc3ccccc3nc2O)nn1-c1ccc(Cl)cc1`, the inhibition result in test [2] was “inactive”.

Take `Oc1ccc(C(c2ccc(O)cc2)c2ccc(O)cc2)cc1`: in test [2], the inhibition entry is “inactive”.

Consider `CCC(c1ccccc1)C(CC)c1ccc(O)c(O)c1` (configuration not stated), for which the inhibition result in test [2] was “inactive”.

As for `O=c1cc2oc3cc(O)c(O)cc3c(-c3ccccc3)c-2cc1O`, the IC50 in test [3] was 900 nM. This molecule also came in with a minimal inhibitory concentration (MIC) in test [1] of 200 µg/mL (≈ 624 µM).

As for `NC(=O)CC[C@@H](C(=O)O)N1C(=O)c2ccc(O)cc2C1=O`, the inhibition entry in test [2] was “inactive”.

In the case of `O=c1oc2c(cc1O)oc(=O)c1cc(O)c(O)c(O)c12`, the inhibition entry in test [2] is “inactive”.

On to `O[C@@H]1[C@@H](OCc2ccccc2)OC[C@H](O)[C@@H]1O`, for which the inhibition result in test [2] was “inactive”.

`COc1cc(NC(=O)c2cc3ccccc3cc2O)c(OC)cc1Cl`: the inhibition result in test [2] is “inactive”.

In the case of `Oc1ccc(C(O)(c2ccccc2)c2ccc(O)c3ccccc23)c2ccccc12`, the inhibition entry in test [2] is “inactive”.

For the molecule `N#Cc1cnn2ccn([C@@H]3O[C@H](CO)[C@@H](O)[C@H]3O)c12`, the inhibition entry in test [2] is “inactive”.

As for `COc1ccc(OC)c(NC(=O)c2cc3oc4ccccc4c3cc2O)c1`, the inhibition result in test [2] was “inactive”.

Take `C[C@@H]1O[C@@H](Oc2c(-c3cc(O)c(O)c(O)c3)oc3cc(O)cc(O)c3c2=O)[C@H](O)[C@H](O)[C@H]1O`: the inhibition result in test [2] was “inactive”.

Turning to `Cc1cc(=O)oc2cc(O)c(O)cc12`, the inhibition entry in test [2] was “inactive”.

For `O=C(/C=C/c1ccc(O)c(O)c1)O[C@@H]1C[C@@](OC(=O)/C=C/c2ccc(O)c(O)c2)(C(=O)O)C[C@@H](O)[C@@H]1O`, the inhibition entry in test [2] is “inactive”.

For `O=C1C=CC=CC1=C1c2cc(O)c(O)cc2Oc2cc(O)c(O)cc21`, in test [3], the IC50 turned out to be 2100 nM. In test [1], this molecule showed an MIC of 133 µg/mL (≈ 395 µM).

As for `Cc1cc2c(cc1C)NC1=C(N2)OC(c2cccc(O)c2)C1=O` (configuration not stated), in test [2], the inhibition result was “inactive”.

Turning to `COc1ccccc1NC(=O)c1cc2cc(Br)ccc2cc1O`, the inhibition result in test [2] was “inactive”.

Turning to `CC(c1cccc(O)c1)C(C)c1cccc(O)c1` (configuration not stated), the inhibition entry in test [2] is “inactive”.

With `O=C(/C=C/c1ccc2ccccc2n1)c1cc(Cl)ccc1O`, in test [2], the inhibition result is “inactive”.

In the case of `O=C1CC(c2ccccc2)c2ccc(O)cc2O1` (configuration not stated), the inhibition result in test [2] was “inactive”.

For `N=C(N)c1ccc(/C=C/c2ccc(C(=N)N)cc2O)cc1`, in test [2], the inhibition entry was “inactive”.

As to `Cc1c(Cl)cccc1Nc1ncccc1C(=O)OCC(O)CO` (configuration not stated), the inhibition entry in test [2] was “inactive”.

Take `Cn1c(=O)c2nc(CNc3ccc(C(=O)O)cc3)[nH]c2n(C)c1=O`: the inhibition entry in test [2] was “inactive”.

In the case of `CCC(CC)C(c1ccc(O)cc1)c1ccc(O)cc1`, in test [2], the inhibition entry is “inactive”.

Regarding `CC(Cc1ccc(O)c(O)c1)C(C)Cc1ccc(O)c(O)c1` (configuration not stated), the inhibition result in test [2] was “inactive”.

With `O=C1C=C(c2ccccc2)OC(=O)C1C(=O)c1ccccc1` (configuration not stated), the inhibition entry in test [2] was “inactive”.

As for `O=C(O)/C=C/c1c2ccc(=O)c(O)c-2oc2c(O)c(O)ccc12`, the inhibition entry in test [2] is “inactive”.

For the molecule `Cc1cc(O)c2cc3c(O)c(O)ccc3cc2c1`, the inhibition entry in test [2] was “inactive”.

As to `NC(=S)c1cn([C@@H]2O[C@H](CO)[C@@H](O)[C@H]2O)c2ncnc(N)c12`, the inhibition result in test [2] is “inactive”.

On to `O=c1ccc2c(-c3ccccc3O)c3ccc(O)cc3oc-2c1`, for which the inhibition result in test [2] is “inactive”.

As to `Oc1cc(C(c2ccccc2)c2ccccc2)c2ccccc2c1O`, in test [2], the inhibition entry was “inactive”.

On to `COc1ccc(NC(=O)c2cc3ccc4c5ccccc5[nH]c4c3cc2O)cc1`, for which, in test [2], the inhibition entry is “inactive”.

On to `CCC(c1ccccc1)C(CC)c1cc(O)c(O)c(O)c1` (configuration not stated), for which, in test [2], the inhibition entry was “inactive”.

As to `O=C(c1ccc(O)cc1)c1ccc(C(=O)c2ccc(O)cc2)cc1`, in test [2], the inhibition result was “inactive”.

These data come from ChEMBL document CHEMBL1938285, “Novel inhibitors of Mycobacterium tuberculosis dTDP-6-deoxy-L-lyxo-4-hexulose reductase (RmlD) identified by virtual screening” (Bioorg Med Chem Lett, 2011).
